The values that follow come from patent US9924716B2, “Molecules having pesticidal utility, and intermediates, compositions, and processes, related thereto” (Dow AgroSciences LLC, priority 2016, dated 2018).

The structures appear in SMILES notation.

The subject of test [1] is Cabbage Looper (Trichoplusia ni, TRIPNI) second instar larvae. Put plainly: Bioassay on Cabbage Looper (CL), 128-well diet tray assay. In kind it is in vivo. To be noted: for pest or weed control at 50 µg/cm2: Cabbage Looper, Table ABC Biological Results, read-out: CL rating; for mortality at 0.05 µg/cm2: 0.05 μg/cm^2 on artificial diet; for mortality at 0.05 µg/cm2 / mortality at 0.5 µg/cm2 / mortality at 5 µg/cm2: read-out: Percent control (or mortality) CL; for mortality at 0.5 µg/cm2: 0.5 μg/cm^2 on artificial diet; for mortality at 5 µg/cm2: 5 μg/cm^2 on artificial diet. The procedure: (§1) Certain molecules disclosed in this document were tested against BAW, CEW, and CL using procedures described in the following examples. In the reporting of the results, the “BAW, CEW, & CL Rating Table” was used (See Table Section).
Bioassays on CL were conducted using a 128-well diet tray assay. one to five second instar CL larvae were placed in each well (3 mL) of the diet tray that had been previously filled with 1 mL of artificial diet to which 50 μg/cm^2 of the test molecule (dissolved in 50 μL of 90:10 acetone-water mixture) had been applied (to each of eight wells) and then allowed to dry. Trays were covered with a clear self-adhesive cover and held at 25° C., 14:10 light-dark for five to seven days. Percent mortality was recorded for the larvae in each well; activity in the eight wells was then averaged. The results are indicated in the table entitled “Table ABC: Biological Results” (See Table Section).
(§2) Bioassays on BAW and CL were conducted according to the procedures outlined in Example A: Bioassays on Beet Armyworm (“BAW”) and Cabbage Looper (“CL”) using the indicated concentrations.

The test system of test [2] is Beet Armyworm (Spodoptera exigua, LAPHEG) second instar larvae. The test is described as follows: Bioassay on Beet Armyworm (BAW), 128-well diet tray assay. It counts as in vivo. To be noted: for pest or weed control at 50 µg/cm2: Beet Armyworm, Table ABC Biological Results, read-out: BAW rating; for mortality at 0.05 µg/cm2: 0.05 μg/cm^2 on artificial diet; for mortality at 0.05 µg/cm2 / mortality at 0.5 µg/cm2 / mortality at 5 µg/cm2: read-out: Percent control (or mortality) BAW; for mortality at 0.5 µg/cm2: 0.5 μg/cm^2 on artificial diet; for mortality at 5 µg/cm2: 5 μg/cm^2 on artificial diet. The procedure:
as §1
Bioassays on BAW were conducted using a 128-well diet tray assay. one to five second instar BAW larvae were placed in each well (3 mL) of the diet tray that had been previously filled with 1 mL of artificial diet to which 50 μg/cm^2 of the test molecule (dissolved in 50 μL of 90:10 acetone-water mixture) had been applied (to each of eight wells) and then allowed to dry. Trays were covered with a clear self-adhesive cover and held at 25° C., 14:10 light-dark for five to seven days. Percent mortality was recorded for the larvae in each well; activity in the eight wells was then averaged. The results are indicated in the table entitled “Table ABC: Biological Results” (See Table Section).
as §2

As to `C[C@H](NC(=O)CCC(F)(F)F)NC(=O)c1ccc(/C(F)=C/C(c2ccc(Cl)c(Br)c2)C(F)(F)F)cc1C(F)(F)F` (stereo partly drawn) [PF13, 4-((Z)-3-(3-Bromo-4-chlorophenyl)-1,4,4,4-tetrafluorobut-1-en-1-yl)-N—((R)-1-(4,4,4-trifluorobutanamido)ethyl)-2-(trifluoromethyl)benzamide], the pest or weed control at 50 µg/cm2 in test [1] and in test [2] was 50 to 100% in each case.
Turning to `C[C@H](NC(=O)CCC(F)(F)F)NC(=O)c1ccc(/C(F)=C/C(c2cc(Cl)c(Cl)c(Cl)c2)C(F)(F)F)cc1Br` (stereo partly drawn) [F3, 2-Bromo-4-((Z)-1,4,4,4-tetrafluoro-3-(3,4,5-trichlorophenyl)but-1-en-1-yl)-N—((R)-1-(4,4,4-trifluorobutanamido)ethyl)benzamide], in test [1], the mortality at 0.05 µg/cm2 was 100%, the mortality at 0.5 µg/cm2 was 100%, the mortality at 5 µg/cm2 came out at 100% and the pest or weed control at 50 µg/cm2 lay in the range of 50 to 100%. In test [2], the mortality at 0.05 µg/cm2 was found to be 100%, the mortality at 0.5 µg/cm2 worked out at 100%, the mortality at 5 µg/cm2 stood at 100% and the pest or weed control at 50 µg/cm2 was 50 to 100%.
Regarding `Cc1cc(/C(F)=C/C(c2cc(Cl)c(Cl)c(Cl)c2)C(C)(F)F)ccc1C(=O)N[C@H](C)NC(=O)CC(F)(F)F` (stereo partly drawn) [F6, 2-Methyl-4-((Z)-1,4,4-trifluoro-3-(3,4,5-trichlorophenyl)pent-1-en-1-yl)-N—((R)-1-(3,3,3-trifluoropropanamido)ethyl)benzamide], the pest or weed control at 50 µg/cm2 in test [1] and in test [2] was 50 to 100% each time.
As to `C[C@H](NC(=O)CC(F)(F)F)NC(=O)c1ccc(/C(F)=C/C(c2ccc(Cl)c(Br)c2)C(F)(F)F)cc1C(F)(F)F` (stereo partly drawn) [F37, 4-((Z)-3-(3-Bromo-4-chlorophenyl)-1,4,4,4-tetrafluorobut-1-en-1-yl)-2-(trifluoromethyl)-N—((R)-1-(3,3,3-trifluoropropanamido)ethyl)benzamide], the pest or weed control at 50 µg/cm2 in test [1] and in test [2] was 50 to 100% each time.
`C[C@H](NC(=O)CCC(F)(F)F)NC(=O)c1ccc(/C(F)=C/C(c2cc(Cl)c(Cl)c(Cl)c2)C(F)(F)F)cc1Cl` (stereo partly drawn) [F9, 2-Chloro-4-((Z)-1,4,4,4-tetrafluoro-3-(3,4,5-trichlorophenyl)but-1-en-1-yl)-N—((R)-1-(4,4,4-trifluorobutanamido)ethyl)benzamide]: in test [1], the mortality at 0.05 µg/cm2 turned out to be 100%, the mortality at 0.5 µg/cm2 worked out at 100%, the mortality at 5 µg/cm2 came out at 100% and the pest or weed control at 50 µg/cm2 was 50 to 100%. In test [2], the mortality at 0.05 µg/cm2 worked out at 100%, the mortality at 0.5 µg/cm2 came to 100%, the mortality at 5 µg/cm2 amounted to 100% and the pest or weed control at 50 µg/cm2 was in the range of 50 to 100%.
As to `C[C@@H](NC(=O)c1ccc(/C(F)=C/C(c2cc(Cl)c(Cl)c(Cl)c2)C(F)(F)F)cc1C(F)(F)F)NS(=O)(=O)CC(F)(F)F` (stereo partly drawn) [F28, 4-((Z)-1,4,4,4-tetrafluoro-3-(3,4,5-trichlorophenyl)but-1-en-1-yl)-N—((S)-1-(2,2,2-trifluoroethylsulfonamido)ethyl)-2-(trifluoromethyl)benzamide], the pest or weed control at 50 µg/cm2 in test [1] and in test [2] was 50 to 100% each time.
As to `C[C@H](NC(=O)CCC(F)(F)F)NC(=O)c1ccc(/C(F)=C/C(c2ccc(Cl)c(Cl)c2)C(C)(F)F)cc1C(F)(F)F` (stereo partly drawn) [F40, 4-((Z)-3-(3,4-Dichlorophenyl)-1,4,4-trifluoropent-1-en-1-yl)-N—((R)-1-(4,4,4-trifluorobutanamido)ethyl)-2-(trifluoromethyl)benzamide], the pest or weed control at 50 µg/cm2 in test [1] and in test [2] was 50 to 100% in each case.
For the molecule `C[C@@H](NC(=O)c1ccc(/C(F)=C/C(c2cc(Cl)c(Cl)c(Cl)c2)C(F)(F)F)cc1C(F)(F)F)NC(=O)C1CC1` (stereo partly drawn) [F27, N—((R)-1-(cyclopropanecarboxamido)ethyl)-4-((Z)-1,4,4,4-tetrafluoro-3-(3,4,5-trichlorophenyl)but-1-en-1-yl)-2-(trifluoromethyl)benzamide], the pest or weed control at 50 µg/cm2 in test [1] and in test [2] was 50 to 100% each time.
On to `CC[C@H](NC(=O)CC(F)(F)F)NC(=O)c1ccc(/C(F)=C/C(c2cc(Cl)c(Cl)c(Cl)c2)C(F)(F)F)cc1C(F)(F)F` (stereo partly drawn) [F35, 4-((Z)-1,4,4,4-Tetrafluoro-3-(3,4,5-trichlorophenyl)but-1-en-1-yl)-2-(trifluoromethyl)-N—((R)-1-(3,3,3-trifluoropropanamido)propyl)benzamide], for which the pest or weed control at 50 µg/cm2 in test [1] and in test [2] was 50 to 100% each time.
For the molecule `C[C@H](NC(=O)CC(F)(F)F)NC(=O)c1ccc(/C(F)=C/C(c2cc(Cl)c(Cl)c(Cl)c2)C(F)(F)F)cc1Br` (stereo partly drawn) [F4, 2-Bromo-4-((Z)-1,4,4,4-tetrafluoro-3-(3,4,5-trichlorophenyl)but-1-en-1-yl)-N—((R)-1-(3,3,3-trifluoropropanamido)ethyl)benzamide], in test [1], the mortality at 0.05 µg/cm2 amounted to 100%, the mortality at 0.5 µg/cm2 is 100%, the mortality at 5 µg/cm2 was 100% and the pest or weed control at 50 µg/cm2 was 50 to 100%. For the same molecule, in test [2], the mortality at 0.05 µg/cm2 was 100%, the mortality at 0.5 µg/cm2 stood at 100%, the mortality at 5 µg/cm2 is 100% and the pest or weed control at 50 µg/cm2 was 50 to 100%.
On to `C[C@H](NC(=O)CC(F)(F)F)NC(=O)c1ccc(/C(F)=C/C(c2cc(Cl)c(Cl)c(Cl)c2)C(F)(F)F)cc1C(F)(F)F` (stereo partly drawn) [F5, 4-((Z)-1,4,4,4-Tetrafluoro-3-(3,4,5-trichlorophenyl)but-1-en-1-yl)-2-(trifluoromethyl)-N—((R)-1-(3,3,3-trifluoropropanamido)ethyl)benzamide], for which, in test [1], the mortality at 0.05 µg/cm2 was 100%, the mortality at 0.5 µg/cm2 is 100%, the mortality at 5 µg/cm2 came to 100% and the pest or weed control at 50 µg/cm2 fell in the range of 50 to 100%. Besides, in test [2], the mortality at 0.05 µg/cm2 is 100%, the mortality at 0.5 µg/cm2 was determined as 100%, the mortality at 5 µg/cm2 worked out at 100% and the pest or weed control at 50 µg/cm2 is 50 to 100%.
Consider `C[C@H](NC(=O)CC(F)(F)F)NC(=O)c1ccc(/C(F)=C/C(c2cc(Cl)c(Cl)c(Cl)c2)C(C)(F)F)cc1C(F)(F)F` (stereo partly drawn) [F8, 4-((Z)-1,4,4-Trifluoro-3-(3,4,5-trichlorophenyl)pent-1-en-1-yl)-2-(trifluoromethyl)-N—((R)-1-(3,3,3-trifluoropropanamido)ethyl)benzamide], for which the pest or weed control at 50 µg/cm2 in test [1] and in test [2] was 50 to 100% in each case.
For `C[C@@H](NC(=O)c1ccc(/C(F)=C/C(c2cc(Cl)c(Cl)c(Cl)c2)C(F)(F)F)cc1C(F)(F)F)NC(=O)C1(C#N)CC1` (stereo partly drawn) [PF31, N—((S)-1-(1-Cyanocyclopropane-1-carboxamido)ethyl)-4-((Z)-1,4,4,4-tetrafluoro-3-(3,4,5-trichlorophenyl)but-1-en-1-yl)-2-(trifluoromethyl)benzamide], the pest or weed control at 50 µg/cm2 in test [1] and in test [2] was 50 to 100% in each case.
Consider `C[C@H](NC(=O)CC(F)(F)F)NC(=O)c1ccc(/C(F)=C/C(c2ccc(Cl)c(Cl)c2)C(C)(F)F)cc1C(F)(F)F` (stereo partly drawn) [F39, 4-((Z)-3-(3,4-Dichlorophenyl)-1,4,4-trifluoropent-1-en-1-yl)-2-(trifluoromethyl)-N—((R)-1-(3,3,3-trifluoropropanamido)ethyl)benzamide], for which the pest or weed control at 50 µg/cm2 in test [1] and in test [2] was 50 to 100% each time.
With `C[C@H](NC(=O)CC(F)(F)F)NC(=O)c1ccc(/C(F)=C/C(c2cc(Cl)c(Cl)c(Cl)c2)C(F)(F)F)cc1Cl` (stereo partly drawn) [F7, 2-Chloro-4-((Z)-1,4,4,4-tetrafluoro-3-(3,4,5-trichlorophenyl)but-1-en-1-yl)-N—((R)-1-(3,3,3-trifluoropropanamido)ethyl)benzamide], in test [1], the mortality at 0.05 µg/cm2 came out at 100%, the mortality at 0.5 µg/cm2 stood at 100%, the mortality at 5 µg/cm2 is 100% and the pest or weed control at 50 µg/cm2 was 50 to 100%. Besides, in test [2], the mortality at 0.05 µg/cm2 was found to be 79%, the mortality at 0.5 µg/cm2 turned out to be 100%, the mortality at 5 µg/cm2 is 100% and the pest or weed control at 50 µg/cm2 was in the range of 50 to 100%.

In general, mortality refers to the percentage killed.
